Here are results for 2 compounds from patent publication US9856230B2 (University of Sunderland, priority 2012, dated 2018).

Series [1] addresses T1, Trx system (thioredoxin/thioredoxin reductase) (Homo sapiens, UniProt Q16881).
T1 sequence (Q16881 151-649 limits assumed): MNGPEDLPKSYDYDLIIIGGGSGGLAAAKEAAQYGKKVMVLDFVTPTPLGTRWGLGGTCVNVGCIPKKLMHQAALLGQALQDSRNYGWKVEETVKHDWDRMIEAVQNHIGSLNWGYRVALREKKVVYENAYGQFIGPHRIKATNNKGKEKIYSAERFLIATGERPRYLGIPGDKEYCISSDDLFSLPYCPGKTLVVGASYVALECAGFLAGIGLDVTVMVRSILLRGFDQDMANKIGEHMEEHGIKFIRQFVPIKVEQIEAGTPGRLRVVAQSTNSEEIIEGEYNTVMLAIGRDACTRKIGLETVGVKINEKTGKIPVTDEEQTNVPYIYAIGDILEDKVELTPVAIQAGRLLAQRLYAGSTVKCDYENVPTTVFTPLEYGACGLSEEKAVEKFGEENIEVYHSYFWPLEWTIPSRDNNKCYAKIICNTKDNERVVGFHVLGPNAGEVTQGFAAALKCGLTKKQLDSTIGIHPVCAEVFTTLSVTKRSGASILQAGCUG
The experiment in a line: Thioredoxin/thioredoxin reductase insulin reduction assay. It counts as biochemical. The conditions noted are these: for inhibition at 500 µM: compound at 500 μM, read-out: Inhib. (%) Trx Syst. at 500 μM. How it is done:
Thioredoxin/thioredoxin reductase inhibition was measured using the insulin reduction assay (Stevens, M. F. G., Pallis, M., Bradshaw, T. D., Westwell, A. D., Grundy, M., Russell, N, “Induction of apoptosis without redox catastrophe by thioredoxin-inhibitory compounds”, Biochem. Pharmacol. (2003) 66, 1695-1705). […] The first part of the assay involves TrxR reducing oxidized Trx via NADPH. The reduced Trx then reduces disulfide bonds in the insulin, leaving exposed thiol groups, as summarized by the Trx reaction scheme.
The addition of dithionitrobenzoic acid (DTNB) to the free thiol groups of the insulin cleaves the disulfide bond in the DTNB which gives rise to a yellow colour (DTNB reaction scheme). The yellow colour is observed under basic conditions due to the conjugation of electrons between the thiolate anion and the nitro group of thionitrobenzoic acid (TNB). The level of thioredoxin/thioredoxin reductase inhibitory activity is […] proportional to the intensity of the yellow colour.
Addition of DTNB to reduced insulin produces thionitrobenzoic acid (TNB) and a mixed insulin disulfide. DTNB has very little absorbance, but under mild basic conditions TNB forms an anion that gives an intense yellow colour at 412 nm.
Synthesized compounds were tested for thioredoxin/thioredoxin reductase activity using the thioredoxin/thioredoxin reductase insulin assay described above under the heading “Assays”. The compounds were also tested for antiproliferative activity using the MTT assay described above under the heading “Assays”. Theoretical C log P values for the compounds were calculated using ChemDraw. The C log P of a compound is the logarithm of the compound's partition coefficient between n-octanol and water log(coctanol/cwater) and represents a measure of the compound's hydrophilicity and hydrophobicity. […]

Series [2] deals with human T-cells.
Text: (§1) To determine if the analogues were causing apoptosis or necrosis, an Annexin V-Pe assay was used. […] The annexin V is attached to a fluorescent probe that is used for detection by flow cytometry. […] The assay is also used in conjugation with 7-aminoactinomycin D (7-AAD). […] As the plasma membrane becomes increasingly permeable, 7-AAD can move readily across the cell membrane and bind to cellular DNA, thereby providing a way of identifying cells that have lost their membrane integrity; however, when the cell is viable or undergoing early stages of apoptosis, it is impermeable to 7-AAD.
Series [3] deals with human T-cells. The experiment in a line: CFSE proliferation assay. The conditions noted are these: 2000 ng per mL. It counts as cell-based. The source says:
Carboxyfluorescein diacetate succinimidyl ester (56a) (CFSE) is a cell permeable compound which readily enters the cell, upon which, the ester group is cleaved by esterases to produce a fluorescent compound (known as carboxyfluorescein succinimidyl ester (56b)) that is less cell permeable (see CFSE reaction scheme). As cells divide, the carboxyfluorescein succinimidyl ester (56b) is split equally between the daughter cells, which results in reduced carboxyfluorescein succinimidyl ester (56b) signal detection with each subsequent cell division (FIG. 2). The attenuation of the signal gives an indication of the proliferative ability of the cells.
For a compound to show good antiproliferative properties in the CFSE assay, the majority of the cells should remain in the parent state (as per division 0 in FIG. 2). […] As cell division occurs, the carboxyfluorescein succinimidyl ester (56b) is split equally between daughter cells, which results in attenuated signal detection.
CFSE labeled T-cells were treated with compound (33f) or control (no compound added). In the control experiment the majority of cells reached the fifth division (proliferation index of 5.62). […] The PI is the sum of the cells in all generations divided by the calculated number of the original parent cells.

The test system of series [4] is HPV-16 immortalized keratinocyte cell line (CCD-1106 KERTr). The experiment in a line: cells. It counts as cell-based. As to conditions: Homo sapiens; CCD-1106 KERTr keratinocytes; read-out: MTT GI50.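 Further: growth inhibition read as spectrophotometric formazan colour from mitochondrial dehydrogenase cleavage of MTT, proportional to viable cell number, modelling psoriatic hyperproliferation, lower values mean stronger antiproliferative activity.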
Text: The assay is based on the ability of a mitochondrial dehydrogenase enzyme to cleave the tetrazolium rings of the yellow MTT to form dark blue formazan crystals (MTT reaction scheme). These crystals are mostly impermeable to cell membranes and, consequently, they accumulate in healthy viable cells. The addition of detergent solubilizes the cells, which results in the liberation of purple formazan crystals. The number of viable cells is directly proportional to the level of purple formazan produced. This colour change can be measured by a spectrophotometer enabling quantification of changes in cellular proliferation. Compound activity measured by the MTT assay (or other proliferation related assay) may be given as a GI50 value.
A human papilloma virus-16 (HPV-16) immortalized keratinocyte cell line (CCD-1106 KERTr) was used in the MTT cell viability assay.
Antiproliferative activity is indicated by the MTT GI50 (μM), where a lower value indicates higher activity.
In series [5] the test system is human T-cells. The experiment in a line: Annexin V-Pe assay (apoptosis/necrosis).
Text: as §1
The nature of the next series: in vitro. As to conditions: human, Viable Cells (%).

What is called IC50 is the concentration at which inhibition is half-maximal. By GI50 is commonly meant the concentration that inhibits growth by half. For orientation: viability means a read-out of living cells in per cent, often relative to untreated cells. High values mean less harm to the cells, low ones more harm to the cells.

Text for in vitro: as §1

Take `Cc1ccc(S(=O)(=O)Nc2ccc(NC(=O)c3ccco3)cc2NS(=O)(=O)c2ccc(C)cc2)cc1` [Compound (33f), N-(3,4-bis-(toluene-4-sulfonylamino)phenyl)-2-furamide]: the inhibition at 500 µM in series [1] is 93.7%. Moreover, in series [1] (insulin reduction assay, read-out: Trx System IC50), the IC50 was found to be 37 µM. Further, the “Viable Cells (%)” value in the series on human T-cells [2] is 46%. Further, the “division state of CFSE labeled T-cells” value in the series with human T-cells [3] (control: majority reached the fifth division) is reported as “the majority of cells remained in the parent state”. In the series on human T-cells [3] (CFSE labeled T-cells, control 5.62), the “proliferation index (PI)” value came out at 1.36. In addition, the GI50 in series [4] was determined as 10.8 µM. Moreover, the “Early Apoptotic Cells (%)” value with human T-cells [5] (annexin V positive, 7-AAD negative, control 29) stood at 31%. Also, the “Late Apoptotic/Necrotic Cells (%)” value in the series with human T-cells [5] (stain with both reagents, control 15) was 13%. In addition, in the series “in vitro”, the viability came to 37%.
For the compound `Cc1ccc(S(=O)(=O)Nc2ccc(C(=N)NO)cc2NS(=O)(=O)c2ccc(C)cc2)cc1` [(21c), N-hydroxy-3,4-bis-(toluene-4-sulfonylamino)benzamidine], the inhibition at 500 µM in series [1] worked out at 32.4%. The GI50 in series [4] came to 108 µM.
